ChEMBL document CHEMBL1132573, “Novel antitumor 2-cyanoaziridine-1-carboxamides” (J Med Chem, 1999)

Key:
Format in all cases: functional, cell-based
RPMI-8226 [1] = assay: Inhibition of cell growth in drug resistant 8226 myeloma cell line; settings: Homo sapiens
RPMI-8226 [2] = assay: Inhibition of cell growth in drug sensitive 8226 myeloma cell line; settings: Homo sapiens
A549 = assay: Inhibition of cell growth in (A-549) lung cell line; settings: Homo sapiens
A-375 = assay: Inhibition of cell growth in (A375) melan cell line; settings: Homo sapiens
L1210 [3] = assay: Inhibition of cell growth in (L1210 leukemia) MDR cells determined by MTT assay; settings: Mus musculus
L1210 [4] = assay: Inhibition of cell growth in drug sensitive L1210 leukemia cell line determined by MTT assay; settings: Mus musculus
MCF7 [5] = assay: Inhibition of cell growth in (MCF7 breast) dox cell line; settings: Homo sapiens
MCF7 [6] = assay: Inhibition of cell growth in (MCF7 breast) mitox cell line; settings: Homo sapiens
MCF7 [7] = assay: Inhibition of cell growth in drug sensitive MCF-7 breast cell line; settings: Homo sapiens
OVCAR-3 = assay: Inhibition of cell growth in (OVCAR-3) ovarian cell line; settings: Homo sapiens
WiDr [8] = assay: Inhibition of cell growth in drug resistant WiDr colon cell line; settings: Homo sapiens
WiDr [9] = assay: Inhibition of cell growth in drug sensitive WiDr colon cell line; settings: Homo sapiens

CCNC(=O)N1CC1C#N (stereo not given) was tested. Which IC50 (RPMI-8226 [1]) did it give?
The IC50 was 26 µM.

What about the IC50 (RPMI-8226 [2]) of the same compound?
Its IC50 is 22 µM.

What about the IC50 (A549) of the same compound?
The IC50 was 18 µM.

What about the IC50 (A-375) of the same compound?
The IC50 was 36 µM.

And the IC50 (L1210 [3])?
Its IC50 is 14 µM.

What about the IC50 (L1210 [4]) of the same compound?
The IC50 was 14 µM.

What about the IC50 (MCF7 [5]) of the same compound?
The IC50 was 20 µM.

What about the IC50 (MCF7 [6]) of the same compound?
The IC50 was 10 µM.

What about the IC50 (MCF7 [7]) of the same compound?
The IC50 was 29 µM.

What about the IC50 (OVCAR-3) of the same compound?
Its IC50 is 14 µM.

What about the IC50 (WiDr [8]) of the same compound?
The IC50 was 7 µM.

What about the IC50 (WiDr [9]) of the same compound?
The IC50 was 4 µM.

N#CC1CN1C(=O)NC1CCCCC1 (stereo not given) was tested. Which IC50 (RPMI-8226 [1]) did it give?
Its IC50 is 98 µM.

And the IC50 (RPMI-8226 [2])?
The IC50 was 36 µM.

And the IC50 (A549)?
Its IC50 is 10 µM.

What about the IC50 (A-375) of the same compound?
The IC50 was 35 µM.

What about the IC50 (L1210 [3]) of the same compound?
The IC50 was 16 µM.

What about the IC50 (L1210 [4]) of the same compound?
The IC50 was 7.4 µM.

What about the IC50 (MCF7 [5]) of the same compound?
The IC50 was 8.9 µM.

And the IC50 (MCF7 [6])?
Its IC50 is 9.8 µM.

And the IC50 (MCF7 [7])?
Its IC50 is 13 µM.

And the IC50 (OVCAR-3)?
Its IC50 is 31 µM.

And the IC50 (WiDr [8])?
The IC50 was 12 µM.

And the IC50 (WiDr [9])?
The IC50 was 2.4 µM.

Which results are given for CCCCNC(=O)N1CC1C#N (stereo not given)?
IC50 (RPMI-8226 [1]): 17 µM; IC50 (RPMI-8226 [2]): 17 µM; IC50 (A549): 18 µM; IC50 (A-375): 15 µM; IC50 (L1210 [3]): 12 µM; IC50 (L1210 [4]): 12 µM; IC50 (MCF7 [5]): 6.7 µM; IC50 (MCF7 [6]): > 12 µM; IC50 (MCF7 [7]): > 12 µM; IC50 (OVCAR-3): 12 µM; IC50 (WiDr [8]): 18 µM; IC50 (WiDr [9]): 14 µM

Which results are given for CNC(=O)N1CC1C#N (stereo not given)?
IC50 (RPMI-8226 [1]): 26 µM; IC50 (RPMI-8226 [2]): 26 µM; IC50 (A549): 22 µM; IC50 (A-375): 17 µM; IC50 (L1210 [3]): 21 µM; IC50 (L1210 [4]): 8.7 µM; IC50 (MCF7 [5]): 17 µM; IC50 (MCF7 [6]): 18 µM; IC50 (MCF7 [7]): 27 µM; IC50 (OVCAR-3): 14 µM; IC50 (WiDr [8]): 23 µM; IC50 (WiDr [9]): 21 µM

With N#CC1CN1C(=O)Nc1ccc(C(F)(F)F)cc1 (stereo not given) as the compound, how does the IC50 (RPMI-8226 [1]) read?
Its IC50 is 7.8 µM.

What about the IC50 (RPMI-8226 [2]) of the same compound?
Its IC50 is 8.2 µM.

What about the IC50 (A549) of the same compound?
Its IC50 is 4.3 µM.

And the IC50 (A-375)?
The IC50 was 11.8 µM.

And the IC50 (L1210 [3])?
The IC50 was 7.1 µM.

And the IC50 (L1210 [4])?
Its IC50 is 7.8 µM.

And the IC50 (MCF7 [5])?
Its IC50 is 1.4 µM.

And the IC50 (MCF7 [6])?
The IC50 was 1.3 µM.

And the IC50 (MCF7 [7])?
Its IC50 is 1.5 µM.

And the IC50 (OVCAR-3)?
Its IC50 is 5.9 µM.

What about the IC50 (WiDr [8]) of the same compound?
The IC50 was 5.8 µM.

And the IC50 (WiDr [9])?
Its IC50 is 1.3 µM.

N#CC1CN1C(=O)Nc1cccnc1 (stereo not given) was tested. Which IC50 (RPMI-8226 [1]) did it give?
The IC50 was 15 µM.

What about the IC50 (RPMI-8226 [2]) of the same compound?
Its IC50 is 12 µM.

What about the IC50 (A549) of the same compound?
Its IC50 is 16 µM.

And the IC50 (A-375)?
Its IC50 is 12 µM.

And the IC50 (L1210 [3])?
The IC50 was 16 µM.

And the IC50 (L1210 [4])?
The IC50 was 11 µM.

And the IC50 (MCF7 [5])?
The IC50 was 6.6 µM.

And the IC50 (MCF7 [6])?
The IC50 was 5.4 µM.

And the IC50 (MCF7 [7])?
Its IC50 is 4.2 µM.

And the IC50 (OVCAR-3)?
Its IC50 is 10 µM.

What about the IC50 (WiDr [8]) of the same compound?
The IC50 was 18 µM.

And the IC50 (WiDr [9])?
Its IC50 is 6 µM.

COC(=O)c1ccccc1NC(=O)N1CC1C#N (stereo not given) was tested. Which IC50 (RPMI-8226 [1]) did it give?
The IC50 was greater than 39 µM.

And the IC50 (RPMI-8226 [2])?
The IC50 was greater than 39 µM.

What about the IC50 (A549) of the same compound?
Its IC50 is greater than 41 µM.

What about the IC50 (A-375) of the same compound?
The IC50 was greater than 39 µM.

And the IC50 (L1210 [3])?
The IC50 was greater than 39 µM.

What about the IC50 (L1210 [4]) of the same compound?
The IC50 was greater than 39 µM.

What about the IC50 (MCF7 [5]) of the same compound?
Its IC50 is greater than 16 µM.

And the IC50 (MCF7 [6])?
Its IC50 is greater than 16 µM.

And the IC50 (MCF7 [7])?
Its IC50 is greater than 16 µM.

And the IC50 (OVCAR-3)?
The IC50 was greater than 39 µM.

What about the IC50 (WiDr [8]) of the same compound?
Its IC50 is greater than 41 µM.

And the IC50 (WiDr [9])?
Its IC50 is 40 µM.

CC(=O)c1cccc(NC(=O)N2CC2C#N)c1 (stereo not given) was tested. Which IC50 (RPMI-8226 [1]) did it give?
Its IC50 is 9.6 µM.

And the IC50 (RPMI-8226 [2])?
Its IC50 is 8.7 µM.

What about the IC50 (A549) of the same compound?
The IC50 was 5.6 µM.

And the IC50 (A-375)?
The IC50 was 7.9 µM.

And the IC50 (L1210 [3])?
The IC50 was 7.9 µM.

And the IC50 (L1210 [4])?
Its IC50 is 9.6 µM.

And the IC50 (MCF7 [5])?
Its IC50 is 3.2 µM.

And the IC50 (MCF7 [6])?
Its IC50 is 3.5 µM.

What about the IC50 (MCF7 [7]) of the same compound?
The IC50 was 3.6 µM.

And the IC50 (OVCAR-3)?
Its IC50 is 10 µM.

And the IC50 (WiDr [8])?
The IC50 was 9 µM.

And the IC50 (WiDr [9])?
The IC50 was 3.3 µM.

Which IC50 (RPMI-8226 [1]) does the source give for CCOC(=O)c1ccc(NC(=O)N2CC2C#N)cc1 (stereo not given) here?
The IC50 was 3 µM.

And the IC50 (RPMI-8226 [2])?
Its IC50 is 3 µM.

And the IC50 (A549)?
The IC50 was 2.9 µM.

And the IC50 (A-375)?
The IC50 was 5.8 µM.

And the IC50 (L1210 [3])?
Its IC50 is 9.7 µM.

What about the IC50 (L1210 [4]) of the same compound?
The IC50 was 9.7 µM.

And the IC50 (MCF7 [5])?
Its IC50 is 2.1 µM.

And the IC50 (MCF7 [6])?
The IC50 was 3.3 µM.

And the IC50 (MCF7 [7])?
The IC50 was 2.3 µM.

And the IC50 (OVCAR-3)?
The IC50 was 7.7 µM.

And the IC50 (WiDr [8])?
The IC50 was 4.2 µM.

What about the IC50 (WiDr [9]) of the same compound?
The IC50 was 2.5 µM.

N#CC1CN1C(=O)Nc1ccc(F)cc1 (stereo not given) was tested. Which IC50 (RPMI-8226 [1]) did it give?
Its IC50 is 5.9 µM.

What about the IC50 (RPMI-8226 [2]) of the same compound?
The IC50 was 5 µM.

What about the IC50 (A549) of the same compound?
The IC50 was 6.2 µM.

What about the IC50 (A-375) of the same compound?
Its IC50 is 3.4 µM.

And the IC50 (L1210 [3])?
The IC50 was 5.9 µM.

And the IC50 (L1210 [4])?
Its IC50 is 7.3 µM.

And the IC50 (MCF7 [5])?
The IC50 was 2.4 µM.

And the IC50 (MCF7 [6])?
Its IC50 is 2.7 µM.

What about the IC50 (MCF7 [7]) of the same compound?
Its IC50 is 1.9 µM.

What about the IC50 (OVCAR-3) of the same compound?
The IC50 was 5.9 µM.

What about the IC50 (WiDr [8]) of the same compound?
The IC50 was 9 µM.

And the IC50 (WiDr [9])?
The IC50 was 2.1 µM.
